Assays:
brain = assay: Matured TTM-001 and TTM-002 variants, NGS enrichment in mouse brain; assay type: in vivo, mice; conditions: relative to AAV9 control
[1] = tested on: brains, heart, liver, muscle, and DRG of the NHPs; assay: Maturation of TTM-001 and TTM-002 capsids, NGS enrichment in NHP tissues; assay type: in vivo; conditions: relative to AAV9 control
Summary of the method: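 Variants carry mutations within and flanking the loop IV peptide insert: positions 450–466 were triplet-randomized, while positions 449–466 received low-frequency point mutations. The combined pool went into two NHPs, and each peptide was scored by NGS enrichment ratio against AAV9.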

[2] = NGS fold-enrichment of matured AAV capsid variants, NHP brain, RNA
[3] = NGS fold-enrichment, brain of mice
[4] = NGS fold-enrichment, mouse brain
[5] = NGS fold-enrichment of RNA, NHP brain
[6] = NGS fold-enrichment, DRG of NHPs
[7] = NGS fold-enrichment, NHP liver DNA
[8] = NGS fold-enrichment, NHP liver RNA
[9] = NGS fold-enrichment, NHP muscle
[10] = NGS fold-enrichment, RNA, brain of NHPs
[11] = NGS fold-enrichment, heart of NHPs
[12] = NGS fold-enrichment, liver DNA of NHPs
[13] = NGS fold-enrichment, liver RNA of NHPs
[14] = NGS fold-enrichment, muscle of NHPs

| Sequence | Fold Enrichment relative to AAV9, Brain (Mouse) (brain; mouse brain) | Fold Enrichment relative to AAV9, Brain (NHP) [1, 2] | Fold Enrichment relative to AAV9, DRG (NHP) ([1]; NHP DRG) | Fold Enrichment relative to AAV9, Heart (NHP) ([1]; NHP heart) | Fold Enrichment relative to AAV9, Liver DNA (NHP) ([1]; NHP liver, DNA) | Fold Enrichment relative to AAV9, Liver RNA (NHP) ([1]; NHP liver, RNA) | Fold Enrichment relative to AAV9, Muscle (NHP) ([1]; NHP muscle) | Fold Enrichment relative to AAV9, Brain (Mouse) (brain; [3]) | Fold Enrichment relative to AAV9, Brain (Mouse) (brain; [4]) | Fold Enrichment relative to AAV9, Brain (NHP) [1, 5] | Fold Enrichment relative to AAV9, DRG (NHP) [1, 6] | Fold Enrichment relative to AAV9, DRG (NHP) ([1]; NGS fold-enrichment, NHP DRG) | Fold Enrichment relative to AAV9, Heart (NHP) ([1]; NGS fold-enrichment, NHP heart) | Fold Enrichment relative to AAV9, Liver DNA (NHP) [1, 7] | Fold Enrichment relative to AAV9, Liver RNA (NHP) [1, 8] | Fold Enrichment relative to AAV9, Muscle (NHP) [1, 9] | Fold Enrichment relative to AAV9, Brain (NHP) [1, 10] | Fold Enrichment relative to AAV9, Heart (NHP) [1, 11] | Fold Enrichment relative to AAV9, Liver DNA (NHP) [1, 12] | Fold Enrichment relative to AAV9, Liver RNA (NHP) [1, 13] | other results |
| --- | --- | --- | --- | --- | --- | --- | --- | --- | --- | --- | --- | --- | --- | --- | --- | --- | --- | --- | --- | --- | --- |
| KSDIGSGSPHSKAQNQQT | 107.342 fold | 57.592 fold | 0.000 fold | 0.000 fold | 0.128 fold | 0.844 fold | 0.000 fold | – | – | – | – | – | – | – | – | – | – | – | – | – | – |
| KSDKGSGSPHSKAQNQQT | 146.566 fold | 58.248 fold | 0.000 fold | 0.000 fold | 0.166 fold | 0.076 fold | 0.000 fold | – | – | – | – | – | – | – | – | – | – | – | – | – | – |
| KSDQGSGSPHSKAQNQQT | – | – | – | – | – | – | – | 151.911 fold | 151.911 fold | 80.076 fold | 0.000 fold | 0.000 fold | 0.000 fold | 0.124 fold | 0.993 fold | 0.000 fold | 80.076 fold | 0.000 fold | 0.124 fold | 0.993 fold | Fold Enrichment relative to AAV9, Muscle (NHP) [1, 14]: 0.000 fold |
| KSEKGSGSPHSKAQNQQT | 158.931 fold | 58.566 fold | 0.000 fold | 0.010 fold | 0.059 fold | 1.601 fold | 0.011 fold | – | – | – | – | – | – | – | – | – | – | – | – | – | – |
| KSELGHDSPHKSGQNQQT | – | – | – | – | – | – | – | – | 13.285 fold | 107.059 fold | – | 0.000 fold | 0.005 fold | 0.055 fold | 0.000 fold | 0.000 fold | – | – | – | – | – |
| KSELGSGSPHSKAQNQQT | 120.521 fold | 55.997 fold | 0.000 fold | 0.005 fold | 0.239 fold | 0.881 fold | 0.000 fold | – | – | – | – | – | – | – | – | – | – | – | – | – | – |
| KSIKGNGSPHSKAQNQQT | – | – | – | – | – | – | – | 90.251 fold | 90.251 fold | 75.196 fold | 0.000 fold | 0.000 fold | 0.000 fold | 0.000 fold | 0.000 fold | 0.000 fold | 75.196 fold | 0.000 fold | 0.000 fold | 0.000 fold | Fold Enrichment relative to AAV9, Muscle (NHP) [1, 14]: 0.000 fold |
| KSINESGSPHSKAQNQQI | – | – | – | – | – | – | – | 67.649 fold | 67.649 fold | 113.833 fold | 0.000 fold | 0.000 fold | 0.000 fold | 0.000 fold | 0.000 fold | 0.000 fold | 113.833 fold | 0.000 fold | 0.000 fold | 0.000 fold | Fold Enrichment relative to AAV9, Muscle (NHP) [1, 14]: 0.000 fold |
| KSINGGGSPHSKAQYQQT | 65.952 fold | 54.612 fold | 0.000 fold | 0.000 fold | 0.010 fold | 0.105 fold | 0.000 fold | – | – | – | – | – | – | – | – | – | – | – | – | – | – |
| KSINGHDSPHKSGQIQHT | – | – | – | – | – | – | – | – | 13.872 fold | 87.598 fold | – | 0.000 fold | 0.480 fold | 0.347 fold | 0.714 fold | 0.000 fold | – | – | – | – | – |
| KSINGHDSPHKSGQRQHT | – | – | – | – | – | – | – | – | 9.851 fold | 80.132 fold | – | 0.000 fold | 0.357 fold | 0.000 fold | 0.000 fold | 0.000 fold | – | – | – | – | – |
| KSINGHDSPHKSGQYQHT | – | – | – | – | – | – | – | – | 14.485 fold | 88.195 fold | – | 0.000 fold | 0.099 fold | 0.149 fold | 0.000 fold | 0.000 fold | – | – | – | – | – |
| KSINGSGSPHSKAPNLQT | 59.270 fold | 51.812 fold | 0.000 fold | 0.256 fold | 0.139 fold | 0.085 fold | 0.000 fold | – | – | – | – | – | – | – | – | – | – | – | – | – | – |
| KSINGSGSPHSKAQAQQT | – | – | – | – | – | – | – | 78.451 fold | – | – | 0.000 fold | – | – | – | – | – | 66.464 fold | 0.711 fold | 0.111 fold | 0.148 fold | Fold Enrichment relative to AAV9, Muscle (NHP) [1, 14]: 0.000 fold |
| KSINGSGSPHSKTQSQQT | 71.397 fold | 58.608 fold | 0.000 fold | 3.017 fold | 0.017 fold | 0.155 fold | 0.000 fold | – | – | – | – | – | – | – | – | – | – | – | – | – | – |
| KSINGYDSPHKSGQTQQT | – | – | – | – | – | – | – | – | 4.497 fold | 79.227 fold | – | 1.817 fold | 0.226 fold | 1.148 fold | 0.000 fold | 0.000 fold | – | – | – | – | – |
| KSIYGHESPHKSGQNQQS | – | – | – | – | – | – | – | – | 8.064 fold | 90.947 fold | – | 0.817 fold | 0.310 fold | 0.243 fold | 0.000 fold | 0.000 fold | – | – | – | – | – |
| KSLNGSGSPHTKAQNQQT | – | – | – | – | – | – | – | – | 45.140 fold | 81.515 fold | – | 0.197 fold | 0.333 fold | 0.085 fold | 0.000 fold | 0.000 fold | – | – | – | – | – |
| KSVNGNGSPHSKAQNQQT | – | – | – | – | – | – | – | 51.016 fold | 51.016 fold | 99.385 fold | 0.000 fold | 0.000 fold | 1.329 fold | 0.079 fold | 0.359 fold | 0.000 fold | 99.385 fold | 1.329 fold | 0.079 fold | 0.359 fold | Fold Enrichment relative to AAV9, Muscle (NHP) [1, 14]: 0.000 fold |
| KTANGSGSPHSKAQYQQT | – | – | – | – | – | – | – | 139.451 fold | – | – | 0.000 fold | – | – | – | – | – | 73.038 fold | 0.000 fold | 0.160 fold | 0.153 fold | Fold Enrichment relative to AAV9, Muscle (NHP) [1, 14]: 0.000 fold |
